Test results from patent US8450357B2, “Compositions comprising an aryl pyrazole and/or a formamidine, methods and uses thereof” (Merial Limited, priority 2008, dated 2013).
Like-named read-outs stand apart in the source and are kept apart here.

Assays:
ticks = assay: Efficacy of combination of fipronil with amitraz against ticks on dogs; assay type: in vivo; settings: 10 mg/kg BW of actives, topical
Description: (§1) A fipronil formulation (commercial product) was prepared and stored separately from amitraz. Amitraz was formulated with the same carrier. Both parts, fipronil and amitraz in solvent(s) were stored separately and applied simultaneously. Amounts applied were calculated to keep dose at 10% (w/v) each in final formulation and 10 mg/kg BW of actives in amount applied.
In brief, treatment was applied by parting the hair on the midline of the neck, between the base of the skull and the shoulder blades, and applying the formulation directly onto the skin.

fleas = assay: Efficacy of combination of fipronil and amitraz against fleas on dogs; assay type: in vivo; settings: topical
Description: as §1
The amitraz and fipronil composition described in Example 10 were used in this study. […] Treatment was applied by parting the hair on the midline of the neck, between the base of the skull and the shoulder blades, and applying the formulation directly onto the skin.

[1] = system: adult Rhipicephalus sanguineus ticks; assay: whole plant or invertebrate; assay type: in vivo; settings: Rhipicephalus sanguineus
Text: Dosages were serially diluted using this same formulation.

[2] = system: adult Rhipicephalus sanguineus ticks; assay: whole plant or invertebrate
Description: Fipronil was dissolved in acetone containing 0.019% of a mixture of Triton 152 and Triton 172 (1:3, v/v) and 0.4% DMSO to achieve the desired concentration. Dosages were serially diluted using this same formulation. For treatments containing amitraz, amitraz was added to the above solution to achieve the desired concentration. 0.5 ml of the solution was used to treat 20 ml scintillation vials containing a 0.125″ hole in the cap. […] Filter papers treated with this same solution were placed in the cap and bottom of the treated vial. Vials were capped and held over night at 24° C. and 95% RH after which 10 adult Rhipicephalus sanguineus ticks were placed into each vial. The vials were held under the same conditions mentioned above for the duration of the test. […]

[3] = 6 h, read-out: 6 hour % Mortality Rep 1
[4] = 6 h, read-out: 6 hour % Mortality Rep 2
[5] = 6 h, read-out: 6 hour Avg. % Mortality
[6] = 24 h, read-out: 24 hour % Mortality Rep 1
[7] = 24 h, read-out: 24 hour % Mortality Rep 2
[8] = 24 h, read-out: 24 hour Avg. % Mortality
[9] = 48 h, read-out: 48 hour % Mortality Rep 1
[10] = 48 h, read-out: 48 hour % Mortality Rep 2
[11] = 48 h, read-out: 48 hour Avg. % Mortality
[12] = 4 h, read-out: 4 hour % Mortality Rep 1
[13] = 4 h, read-out: 4 hour % Mortality Rep 2
[14] = 4 h, read-out: 4 hour Avg. % Mortality

Cc1ccc(/N=C/N(C)/C=N/c2ccc(C)cc2C)c(C)c1 [Amitraz, amitraz]
95.1%: Efficacy against ticks (ticks; 2 days after treatment)
14.3%: Efficacy against fleas (fleas; 2 days after treatment)
10%: mortality at 25 ppm [1, 9] | mortality at 25 ppm [1, 10] | mortality at 25 ppm [1, 11]
95.0%: Efficacy against ticks (ticks; 23 days after treatment)
56.2%: Efficacy against ticks (ticks; 37 days after treatment)
32.5%: Efficacy against fleas (fleas; 37 days after treatment)
25.9%: Efficacy against fleas (fleas; 44 days after treatment)
0%: mortality at 6.25 ppm [1, 3] | mortality at 12.5 ppm [1, 3] | mortality at 25 ppm [1, 3] | mortality at 6.25 ppm [1, 4] | mortality at 12.5 ppm [1, 4] | mortality at 25 ppm [1, 4] | mortality at 6.25 ppm [1, 5] | mortality at 12.5 ppm [1, 5] | mortality at 25 ppm [1, 5] | mortality at 6.25 ppm [1, 6] | mortality at 12.5 ppm [1, 6] | mortality at 25 ppm [1, 6] | mortality at 6.25 ppm [1, 7] | mortality at 12.5 ppm [1, 7] | mortality at 25 ppm [1, 7] | mortality at 6.25 ppm [1, 8] | mortality at 12.5 ppm [1, 8] | mortality at 25 ppm [1, 8] | mortality at 6.25 ppm [1, 9] | mortality at 12.5 ppm [1, 9] | mortality at 6.25 ppm [1, 10] | mortality at 12.5 ppm [1, 10] | mortality at 6.25 ppm [1, 11] | mortality at 12.5 ppm [1, 11] | mortality at 3.13 ppm [2, 12] | mortality at 6.25 ppm [2, 12] | mortality at 12.5 ppm [2, 12] | mortality at 25 ppm [2, 12] | mortality at 3.13 ppm [2, 13] | mortality at 6.25 ppm [2, 13] | mortality at 12.5 ppm [2, 13] | mortality at 25 ppm [2, 13] | mortality at 3.13 ppm [2, 14] | mortality at 6.25 ppm [2, 14] | mortality at 12.5 ppm [2, 14] | mortality at 25 ppm [2, 14] | mortality at 3.13 ppm [2, 6] | mortality at 6.25 ppm [2, 6] | mortality at 12.5 ppm [2, 6] | mortality at 25 ppm [2, 6] | mortality at 3.13 ppm [2, 7] | mortality at 6.25 ppm [2, 7] | mortality at 12.5 ppm [2, 7] | mortality at 25 ppm [2, 7] | mortality at 3.13 ppm [2, 8] | mortality at 6.25 ppm [2, 8] | mortality at 12.5 ppm [2, 8] | mortality at 25 ppm [2, 8] | mortality at 3.13 ppm [2, 9] | mortality at 6.25 ppm [2, 9] | mortality at 12.5 ppm [2, 9] | mortality at 25 ppm [2, 9] | mortality at 3.13 ppm [2, 10] | mortality at 6.25 ppm [2, 10] | mortality at 12.5 ppm [2, 10] | mortality at 25 ppm [2, 10] | mortality at 3.13 ppm [2, 11] | mortality at 6.25 ppm [2, 11] | mortality at 12.5 ppm [2, 11] | mortality at 25 ppm [2, 11]
20.2%: Efficacy against fleas (fleas; 30 days after treatment)
96.9%: Efficacy against ticks (ticks; 16 days after treatment)
64.9%: Efficacy against ticks (ticks; 30 days after treatment)
12.4%: Efficacy against fleas (fleas; 16 days after treatment)
28.3%: Efficacy against ticks (ticks; 44 days after treatment)
16.3%: Efficacy against fleas (fleas; 23 days after treatment)
